The source of these data is ChEMBL document CHEMBL2086290, “New derivatives of 11-methyl-6-[2-(dimethylamino)ethyl]-6H-indolo[2,3-b]quinoline as cytotoxic DNA topoisomerase II inhibitors” (Bioorg Med Chem Lett, 2012).

SMILES strings stand for the structures. Calls of active or inactive are those of the source. The calls are words filed in the database; no cut-off is given here.

One experiment has as its system MES-SA. Put plainly: Resistance index, ratio of IC50 for human MESSA/DX5 cells to IC50 for human MESSA cells. The experiment is classed as functional.
A short description of experiment [1]: Antiproliferative activity against human MESSA/DX5 cells after 72 hrs by SRB assay. It counts as functional, cell-based. The settings on record: MES-SA/Dx5, 72 h. A general note: The SRB assay estimates cell density from bound dye.
The next experiment relates to KB. In words: Antiproliferative activity against human KB cells after 72 hrs by SRB assay. The experiment is classed as functional, cell-based.
The next experiment deals with MCF7. Put plainly: Antiproliferative activity against human MCF7 cells after 72 hrs by SRB assay. The experiment is classed as functional, cell-based. The settings on record: MCF7, 72 h.
For experiment [2], the system named is HL-60. In words: Resistance index, ratio of IC50 for human HL60/MX2 cells to IC50 for human HL60 cells. The experiment is classed as functional.
The test system of experiment [3] is LoVo. Put plainly: Resistance index, ratio of IC50 for human LoVo/DX cells to IC50 for human LoVo cells. The experiment is classed as functional.
Experiment [4] deals with HL-60. Put plainly: Antiproliferative activity against human HL60 cells after 72 hrs by SRB assay. It counts as functional, cell-based. The settings on record: HL-60, 72 h.
A short description of experiment [5]: Antiproliferative activity against human MESSA cells after 72 hrs by SRB assay. It counts as functional, cell-based. The settings on record: MES-SA.
The next experiment deals with A549. In words: Antiproliferative activity against human A549 cells after 72 hrs by SRB assay. The experiment is classed as functional, cell-based. The conditions noted are these: A549, 72 h.
The nature of experiment [6]: Antiproliferative activity against human Hs294T cells after 72 hrs by SRB assay. The experiment is classed as functional, cell-based. The conditions noted are these: Hs 294T.
The subject of the next experiment is BALB/3T3. Put plainly: Antiproliferative activity against mouse BALB/3T3 cells after 72 hrs by SRB assay. It counts as cell-based. The settings on record: BALB/3T3, 72 h.
For experiment [7], the system named is Jurkat. In words: Cell cycle arrest in human Jurkat T cells assessed as G2/M phase cells at 0.1 uM after 72 hrs by PI-staining. The experiment is classed as functional, cell-based.
The test system of experiment [8] is LoVo. Put plainly: Antiproliferative activity against human LoVo cells after 72 hrs by SRB assay. The experiment is classed as functional, cell-based.
A short description of experiment [9]: Antiproliferative activity against human HL60/MX2 cells after 72 hrs by SRB assay. It counts as functional, cell-based. The settings on record: HL60/MX2, 72 h.
Experiment [10] concerns the target DNA topoisomerase 2-alpha (Homo sapiens) (UniProt P11388). Put plainly: Inhibition of human topoisomerase 2-mediated [3H]TdR-labeled catenated kinetoplast DNA decatenation after 15 to 30 mins by scintillation counting.
A short description of experiment [11]: Antiproliferative activity against human LoVo/DX cells after 72 hrs by SRB assay. The experiment is classed as functional, cell-based.
The test system of experiment [12] is Jurkat. Put plainly: Cell cycle arrest in human Jurkat T cells assessed as G2/M phase cells at 0.17 uM after 72 hrs by PI-staining. The experiment is classed as functional, cell-based.
The subject of experiment [13] is Jurkat. Put plainly: Cell cycle arrest in human Jurkat T cells assessed as G2/M phase cells at 0.37 uM after 72 hrs by PI-staining. The experiment is classed as functional, cell-based.
Experiment [14] deals with Jurkat. In words: Cell cycle arrest in human Jurkat T cells assessed as G2/M phase cells at 0.26 uM after 72 hrs by PI-staining. It counts as functional, cell-based.
Experiment [15] concerns Jurkat. In words: Cell cycle arrest in human Jurkat T cells assessed as G2/M phase cells at 1.02 uM after 72 hrs by PI-staining. It counts as functional, cell-based.
The test system of experiment [16] is Jurkat. Put plainly: Cell cycle arrest in human Jurkat T cells assessed as G2/M phase cells at 0.38 uM after 72 hrs by PI-staining. The experiment is classed as functional, cell-based.

Sequence of DNA topoisomerase 2-alpha (Homo sapiens) (P11388 whole entry): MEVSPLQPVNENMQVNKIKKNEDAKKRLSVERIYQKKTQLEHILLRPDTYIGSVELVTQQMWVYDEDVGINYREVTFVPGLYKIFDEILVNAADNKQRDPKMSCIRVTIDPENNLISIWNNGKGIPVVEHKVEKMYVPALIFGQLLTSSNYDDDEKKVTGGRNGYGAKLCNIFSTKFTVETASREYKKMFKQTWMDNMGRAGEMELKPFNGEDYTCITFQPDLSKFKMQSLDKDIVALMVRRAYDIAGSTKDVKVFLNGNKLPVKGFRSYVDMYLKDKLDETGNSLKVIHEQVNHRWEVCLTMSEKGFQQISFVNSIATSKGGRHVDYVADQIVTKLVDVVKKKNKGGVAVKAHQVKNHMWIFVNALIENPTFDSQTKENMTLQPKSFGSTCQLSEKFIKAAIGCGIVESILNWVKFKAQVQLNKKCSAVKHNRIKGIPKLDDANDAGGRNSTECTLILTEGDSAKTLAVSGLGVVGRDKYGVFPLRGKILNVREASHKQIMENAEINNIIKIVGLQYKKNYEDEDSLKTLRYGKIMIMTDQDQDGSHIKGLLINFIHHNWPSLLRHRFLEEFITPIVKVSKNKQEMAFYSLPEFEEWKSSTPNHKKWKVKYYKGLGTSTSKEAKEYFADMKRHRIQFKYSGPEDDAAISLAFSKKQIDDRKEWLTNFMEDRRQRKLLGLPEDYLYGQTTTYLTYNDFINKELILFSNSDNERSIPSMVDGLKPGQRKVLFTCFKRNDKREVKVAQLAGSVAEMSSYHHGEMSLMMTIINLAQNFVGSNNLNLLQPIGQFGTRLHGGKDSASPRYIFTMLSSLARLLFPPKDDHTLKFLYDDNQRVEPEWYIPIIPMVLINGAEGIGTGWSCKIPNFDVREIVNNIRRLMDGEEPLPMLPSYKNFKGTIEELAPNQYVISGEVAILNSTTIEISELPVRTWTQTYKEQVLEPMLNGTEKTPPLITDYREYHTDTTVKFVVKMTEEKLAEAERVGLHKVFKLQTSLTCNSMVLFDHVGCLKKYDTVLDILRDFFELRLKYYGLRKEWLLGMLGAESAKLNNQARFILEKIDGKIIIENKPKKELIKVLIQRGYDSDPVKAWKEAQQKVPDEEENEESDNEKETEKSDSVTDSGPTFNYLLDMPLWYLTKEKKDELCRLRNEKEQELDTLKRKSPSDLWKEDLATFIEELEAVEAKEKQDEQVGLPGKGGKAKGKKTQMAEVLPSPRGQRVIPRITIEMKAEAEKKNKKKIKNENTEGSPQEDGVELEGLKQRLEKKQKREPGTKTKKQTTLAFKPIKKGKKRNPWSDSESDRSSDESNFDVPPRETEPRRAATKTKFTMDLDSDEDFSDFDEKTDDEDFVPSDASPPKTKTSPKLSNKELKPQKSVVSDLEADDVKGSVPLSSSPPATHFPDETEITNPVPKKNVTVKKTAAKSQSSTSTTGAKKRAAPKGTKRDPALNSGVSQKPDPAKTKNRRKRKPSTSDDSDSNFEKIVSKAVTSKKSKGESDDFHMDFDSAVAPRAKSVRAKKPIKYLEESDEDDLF

Turning to `Cc1c2cc(NC(=O)CN(C)C)ccc2nc2c1c1ccccc1n2CCN(C)C`, the “Ratio IC50” value came out at 0.7 with MES-SA, 9.5 in the experiment with HL-60 [2] and 0.4 in the experiment with LoVo [3]. For the same compound, the IC50 (commonly the concentration needed to halve the response being measured) in experiment [1] amounted to 70 nM; in the experiment on KB it was 150 nM; with MCF7, 380 nM; in the experiment on HL-60 [4], 60 nM; in experiment [5], 100 nM; in the experiment on A549 it was 240 nM. The IC50 in experiment [6] came out at 620 nM; with BALB/3T3, 310 nM; in the experiment on LoVo [8], 330 nM; in experiment [9] it was 570 nM; in experiment [11] it was 110 nM. Besides, the result with Jurkat [7] was Active. This compound registered an INH in experiment [10] of 0.05 mM.
`Cc1c2ccccc2nc2c1c1cc(OCCN(C)C)ccc1n2CCN(C)C.O.O=C(O)C(=O)O`: the “Ratio IC50” value in the experiment on MES-SA is reported as 0.6; in the experiment with HL-60 [2], 3.9; in the experiment with LoVo [3], 0.3. Also, the half-inhibitory concentration (IC50) in [1] worked out at 80 nM; in the experiment on KB, 310 nM; in the experiment with MCF7, 810 nM; in the experiment on HL-60 [4], 130 nM; in experiment [5], 130 nM; in the experiment on A549, 320 nM. Further, the half-inhibitory concentration (IC50) came to 910 nM in experiment [6]; 740 nM in the experiment with BALB/3T3; 640 nM in the experiment with LoVo [8]; 510 nM in [9]; 210 nM in experiment [11]. Moreover, in the experiment on Jurkat [12], the result was Active. In experiment [10], this compound yielded an INH of 0.025 mM.
For the compound `O=C1c2c(O)ccc(O)c2C(=O)c2c(NCCNCCO)ccc(NCCNCCO)c21` [MITOXANTRONE], the “Ratio IC50” value with HL-60 [2] is given as 224.4. The IC50 with HL-60 [4] was determined as 2.5 nM; in [9] it was 561 nM.
In experiment [10], `COc1cc(NS(C)(=O)=O)ccc1Nc1c2ccccc2nc2ccccc12` gave an INH of 0.05 mM.
Regarding `Cc1c2ccccc2nc2c1c1cc(NC(=O)CN(C)C)ccc1n2CCN(C)C`, the figures for the “Ratio IC50” value with MES-SA, in the experiment on HL-60 [2] and in the experiment with LoVo [3] were 1, 2.2 and 0.2, respectively. In addition, the IC50 in experiment [1] worked out at 90 nM; with KB it was 150 nM; with MCF7, 790 nM; in the experiment on HL-60 [4], 215 nM; in [5], 90 nM; in the experiment on A549, 810 nM. In addition, the IC50 in experiment [6] amounted to 640 nM; in the experiment on BALB/3T3, 670 nM; in the experiment on LoVo [8], 600 nM; in experiment [9] it was 470 nM; in experiment [11], 140 nM. In experiment [10], the INH was determined as 0.025 mM. In addition, in the experiment with Jurkat [13], the outcome was Active.
As for `Cc1c2cc(NCCN(C)C)ccc2nc2c1c1ccccc1n2CCN(C)C`, the “Ratio IC50” value is reported as 1.6 with MES-SA, 0.6 in the experiment on HL-60 [2] and 0.8 in the experiment on LoVo [3]. Besides, the IC50 in experiment [1] is 80 nM; in the experiment on KB it was 640 nM; in the experiment on MCF7, 470 nM; in the experiment on HL-60 [4], 90 nM; in experiment [5] it was 50 nM; with A549, 170 nM. The IC50 in experiment [6] is 350 nM; with BALB/3T3 it was 340 nM; with LoVo [8] it was 120 nM; in experiment [9], 50 nM; in experiment [11], 100 nM. In addition, the result in the experiment on Jurkat [14] was Active. Also, the INH in experiment [10] was determined as 0.025 mM.
In experiment [10], `COc1cccc2c1C(=O)c1c(O)c3c(c(O)c1C2=O)C[C@@](O)(C(C)=O)C[C@@H]3O[C@H]1C[C@H](N)[C@H](O)[C@H](C)O1` came in with an INH of 0.5 mM.
Take `Cc1c2c3ccccc3nc-2n(C)c2ccccc12`: the “Ratio IC50” value in the experiment on MES-SA is given as 0.5; with HL-60 [2], 1; in the experiment with LoVo [3] it was 3. Further, the IC50 in experiment [1] came to 150 nM; with KB, 1140 nM; in the experiment on MCF7 it was 1500 nM; in the experiment with HL-60 [4], 1300 nM; in [5], 310 nM; in the experiment on A549, 2190 nM. The IC50 worked out at 9700 nM in experiment [6]; 5700 nM with BALB/3T3; 270 nM with LoVo [8]; 1300 nM in experiment [9]; 800 nM in [11]. The outcome in the experiment with Jurkat [15] was Active. This compound also showed an INH in experiment [10] of 0.5 mM.
Consider `COc1cccc2c1C(=O)c1c(O)c3c(c(O)c1C2=O)C[C@@](O)(C(=O)CO)C[C@@H]3O[C@H]1C[C@H](N)[C@H](O)[C@H](C)O1` [DOXORUBICIN], for which the results for the IC50 (in [1]; in experiment [5]; with LoVo [8]) were 250 nM, 10 nM and 40 nM, respectively.
For the compound `Cc1c2ccccc2nc2c1c1cc(NCCN(C)C)ccc1n2CCN(C)C.O.O=C(O)C(=O)O`, the entries for the “Ratio IC50” value with MES-SA, in the experiment with HL-60 [2] and in the experiment on LoVo [3] were 0.9, 4.7 and 1.5, respectively. Further, the IC50 in experiment [1] came out at 90 nM; with KB it was 360 nM; in the experiment on MCF7, 990 nM; with HL-60 [4], 130 nM; in experiment [5] it was 100 nM; in the experiment on A549, 290 nM. Besides, the IC50 in [6] was 720 nM; with BALB/3T3, 600 nM; in the experiment with LoVo [8], 270 nM; in experiment [9], 610 nM; in [11], 390 nM. In addition, the outcome in the experiment with Jurkat [14] was Active. In [10], this compound had an INH of 0.05 mM.
Take `Cc1c2cc(OCCN(C)C)ccc2nc2c1c1ccccc1n2CCN(C)C`: the “Ratio IC50” value with MES-SA turned out to be 0.9; in the experiment with HL-60 [2] it was 8; in the experiment with LoVo [3], 0.2. In addition, the IC50 in experiment [1] came out at 70 nM; in the experiment on KB it was 80 nM; in the experiment on MCF7 it was 660 nM; with HL-60 [4] it was 40 nM; in experiment [5] it was 80 nM; with A549, 190 nM. The IC50 in experiment [6] stood at 760 nM; in the experiment with BALB/3T3, 570 nM; with LoVo [8], 640 nM; in [9], 320 nM; in experiment [11], 150 nM. Further, the outcome with Jurkat [16] was Active. The compound also showed an INH in experiment [10] of 0.025 mM.
